According to patent publication US11203582B2, “Benzamide derivatives for inhibiting endoplasmic reticulum (ER) stress” (The Board of Regents of the University of Oklahoma, priority 2017, dated 2021):

Tests used:
βTC6 cells = assay: Cell survival assay, intracellular ATP, βTC6 cells treated with Tm; type: cell-based; settings: 72 h, FIG. 2C
Source text: The measurement of intracellular ATP level was use as a surrogate assay for cell viability. […] To confirm the authenticity of 13d's protective effect on β-cell viability (not simply an increase in ATP-specific measurement), we used the MTT assay, which measures the activity of NAD(P)H-dependent cellular oxidoreductase enzymes, as an orthogonal method to measure cell viability. […] To determine whether the protective effect of 13d on β-cells is specific to INS-1 cells, another β-cell line, βTC6, was used. […] In addition, compound 13d on its own had no effect on β-cell viability in both cell lines (FIG. 2C-D). […]
INS-1 cells or βTC6 cells were seeded at 3×10^3 cells/well in a 384-well plate and treated with compounds at the indicated concentrations. […] Cell viability was measured with an EnVision multilabel plate reader (PerkinElmer, MA, USA).

cleaved PARP = assay: Western blotting of cleaved PARP in Tm-treated INS-1 cells; type: cell-based, rat; settings: Tm co-treatment, 24 h
Description: To determine whether the increase in β-cell viability following treatment with 13d is caused by a suppression of apoptotic cell death, several apoptosis-related makers were measured. First, levels of cleaved caspase-3 and cleaved PARP were assayed by Western blotting. Caspase-3, a member of executioner caspases activated by cleavage, plays essential roles in initiating apoptotic signaling and executing the final stages of cell death, whereas the nuclear enzyme poly (ADP-ribose) polymerase (PARP) plays an important role in a number of cellular processes involving DNA repair and cell death. […] However, upon severe ER stress, caspase 3 undergoes proteolytic cleavage to produce two subunits that dimerize to form the active enzyme, which in turns cleaves PARP. […] A further assessment of apoptotic INS-1 cell death was performed using TUNEL assays to detect nuclear DNA fragmentation (a consequence of cell apoptosis) in situ.
INS-1 cells were seeded in 60-mm dishes at 8×10^5 cells/dish and treated for the indicated times. Cells were then washed with PBS and lysed with lysis buffer (Cell Signaling Technology, Danvers, Mass.) containing EDTA (Thermo, Ill.) and phosphatase inhibitors (Thermo). Aliquots of 20 μg total protein were separated on 7% SDS-PAGE gels (Life Technologies) and transferred to PVDF membranes (Life Technologies). […]

INS2 mRNA = assay: qRT-PCR of INS2 mRNA in Tm-treated INS-1 cells; type: cell-based, rat; settings: Tm co-treatment, 24 h
Description: (A-D) INS-1 cells were treated with or without Tm (0.1 m/mL) in the presence of 13d at indicated concentrations or DMSO for 24 h. The mRNA levels of INS1 (A), INS2 (B), PDX1 (C), and MafA (D), were analyzed by qRT-PCR. Relative mRNA levels were normalized against the housekeeping gene Cyclophilin A using the comparative CT method. The results are the means of 3 replicate wells and are representative of 3 independent experiments. * P<0.05 and ** P<0.01 compared with Tm treatment alone. Bars indicate SD. (E) Insulin secretion by INS-1 cells incubated with 1.7 mM and 20 mM glucose in the presence or absence of Tm (0.1 μg/mL) and 13d. Secreted insulin was measured by ELISA after 24 h treatment. * P<0.05. The amount of insulin secreted in response to 1.7 mM glucose in the absence of Tm was set to 1.0 and was normalized with total protein concentration.
INS-1 cells were seeded at 4×10^5 cells/well in 6-well plates and treated with compounds for the indicated times. […] Relative mRNA levels were normalized against the housekeeping gene Cyclophilin A and were determined by ΔΔCt calculated from the difference in ΔCt values between the target gene and Cyclophilin A with and without treatment, based on comparative CT (cycle threshold) method. […]

Bip mRNA = assay: qRT-PCR of Bip mRNA in Tm-treated INS-1 cells; type: cell-based, rat; settings: Tm 0.1 μg/mL co-treatment, 8 h
Description: INS-1 cells were treated with or without Tm (0.1 μg/mL) in the presence of 13d or DMSO for 8 h. Bip (A) and GRP94 (B) mRNA levels were analyzed by qRT-PCR. Relative mRNA levels were normalized against the housekeeping gene Cyclophilin A using the comparative CT method. The results are the means of 3 replicate wells and representative of 3 independent experiments. ** P<0.01 compared with Tm treatment alone. Error bars indicate SD.
We then investigated the effects of 13d on the activation of ATF6 in β-cells under ER stress. Activated ATF6 acts as a homodimer or as an ATF6-XBP1s heterodimer to control the up-regulation of select UPR target genes including the chaperone proteins BiP and GRP94. Therefore, these two chaperone proteins were evaluated in the INS-1 cells in the presence of Tm.
INS-1 cells were seeded at 4×10^5 cells/well in 6-well plates and treated with compounds for the indicated times. Total RNA was extracted using TRIzol reagent (Invitrogen, Carlsbad, Calif.) according to the manufacturer's protocol, and 2 μg of total RNA was reverse transcribed using a Superscript kit (Invitrogen). […] Relative mRNA levels were normalized against the housekeeping gene Cyclophilin A and were determined by ΔΔCt calculated from the difference in ΔCt values between the target gene and Cyclophilin A with and without treatment, based on comparative CT (cycle threshold) method. […]

O=C(NCc1ccc(C(F)(F)F)cc1)c1cccc(CN2CCCCC2)c1 [Compound 13d, N-(4-trifluoromethylphenmethyl)-3-(N-piperidinyl)methyl benzamide]
viability of βTC6 cells under Tm treatment (intracellular ATP) (βTC6 cells; Tm 0.3 μg/mL): rescued the viability of βTC6 cells in a dose-dependent manner
effect of compound on its own on β-cell viability (βTC6 cells; βTC6 cells, no Tm): no effect
Tm-induced cleavage of PARP (cleaved PARP): completely or significantly diminished
Tm-suppressed INS2 mRNA level (INS2 mRNA): completely rescued
Tm-induced up-regulation of Bip mRNA (Bip mRNA): almost completely reversed
